According to patent publication US6391921B1 (priority 2000, dated 2002):

How the values were obtained:
[1] = tested on: RBL-2H3 mast cells; experiment: IgE/antigen induced calcium mobilization in mast cells (fluo-3 imaging); format: cell-based, rat; details: 30 μM, 20 minutes prior to stimulation with 20 ng/ml DNP-BSA; FIG. 2A
Experimental: (§1) To study the effects of compound D-58, RBL-2H3 cells were incubated with compound D-58 at the indicated concentrations or vehicle for 1 hour prior to antigen challenge. Mast cell degranulation (β-hexosaminidase release, % of total) was assessed by measuring the β-hexosaminidase levels in cell free supernatants and Triton X-100 solubilized pellets using the formula: β-hexosaminidase release, % of total=100×(β-hexosaminidase level in supernatant/β-hexosaminidase level in supernatant+solubilized pellet). LTC4 levels in cell free supernatants of mast cells were estimated using standard procedures (ref 24). […]
The results are shown in FIGS. 2A-B. IgE/antigen stimulation of RBL-2H3 mast cells activates a cascade of signal transduction events, which includes tyrosine phosphorylation of several proteins and SYK/BTK-mediated activation of phospholipase C, which generates second messengers inositol 1,4,5-triphosphate (IP3) and 1,2-diacylglycerol (DAG) (ref 7). […] IgE sensitized and Ca^2+ indicator fluo-3/AM loaded RBL-2H3 cells were stimulated with 20 ng/ml antigen (DNP-BSA) in presence of 1 mM calcium chloride and the fluorescence intensity, reflecting the calcium ion concentration was measured. […]
The fluorescent Ca^2+ indicator, fluo-3/AM (Molecular Probes) was used to detect Ca^2+ mobilizations in individual cells (ref 25). […] The background fluorescence was subtracted from each image.

[2] = tested on: Balb/c mice; experiment: IgE-dependent passive cutaneous anaphylaxis (Evans blue dye extravasation); format: in vivo; details: 25 mg/kg i.p. twice at 1 hour intervals prior to antigen challenge; 30 minutes after challenge; vehicle 0.64±0.08
Experimental: The in vivo biologic activity of compound D-58 was examined in a well characterized murine model of passive cutaneous anaphylaxis. In order to induce passive cutaneous anaphylaxis, left ears of Balb/c mice were sensitized with 50 μg DNP-IgE intradermally. Right ears were injected with equal volumes of saline. Dorsal sides of the ears of Balb/c mice were injected intradermally with 50 μg of DNP-IgE (left ears) or PBS (right ears) using a 30-gauge needle (ref 28). Twenty hours later, mice were challenged with 100 μg antigen (DNP-BSA) in 200 μl 2% Evans blue dye intravenously. Control mice were given PBS (but not antigen) intravenously with 2% Evans blue. For quantitation of Evans blue dye extravasation as a measure of anaphylaxis-associated vascular hyperpermeability, 8 mm^2 skin specimens were removed from the ears of mice, minced in 2 ml formamide and incubated in a 80° C. water bath for 2 hours to extract the dye. The absorbance was read at 570 nm using a spectrophotometer.
For assessment of the vascular leak, animals were sacrificed 30 minutes after the antigen challenge. The plasma exudation was assessed by quantitation of the amount of Evan's blue dye extravasated into the ear skin 30 minutes after the antigen challenge. […]

[3] = tested on: RBL-2H3 mast cells; experiment: IgE receptor/FcεRI-mediated mast cell LTC4 release; format: cell-based, rat; details: 1 hour prior to DNP-BSA challenge; FIG. 3B
Experimental: Monolayers of RBL-2H3 rat mast cells were sensitized with monoclonal anti-DNP IgE antibody (0.24 mg/ml) for 1 hour at 37° C. in a 48-well tissue culture plate. Unbound IgE was removed by washing the cells with phosphate buffered saline. After washing, PIPES-buffered saline containing 1 mM calcium chloride was added to the monolayers of the RBL-2H3 cells. The cells were challenged with 20 ng/ml DNP-BSA for 30 minutes at 37° C. The plate was centrifuged at 200 g for 10 minutes at 4° C. and supernatants were saved. […]
as §1, with “pellet).” for “pellet). LTC4 levels in cell free supernatants of mast cells were estimated using standard procedures (ref 24).”
In order to examine the effects of compound D-58 on IgE receptor/FcεRI-mediated mast cell activation and mediator release, RBL-2H3 mast cells were exposed to increasing concentrations of this ethanone or vehicle prior to challenge with antigen (DNP-BSA). […] Mast cell β-hexosaminidase release (FIG. 3A) and LTC4 release (FIG. 3B) were measured. […]

In the case of `COc1ccc(CC(=O)c2c(O)cc(O)cc2O)cc1` [Compound D-58], the “IgE/antigen induced calcium response” value [1] is reported as “abrogation of calcium mobilization”, the “Evans blue dye extravasation in DNP-IgE injected ears, Absorbance at 570 nm” value [2] is reported as 0.26±0.02 and the “IgE/antigen induced LTC4 release” value [3] is reported as “inhibited”.
